Measured values taken from patent US20110313041A1 (priority 2008, published 2011).
Where two headings read alike, the source gives them in different places.

Tests used:
[1] = test system: smooth muscles of lachrymal gland, bladder, stomach, intestine; assay: response experiment to sublingual/buccal Panthenol under Acetylcholinersterase-inhibition; format: in vivo, human; conditions: 2 g Panthenol Tbl. sublingual/buccal
Description: Immediately afterwards, response experiment to sublingual/buccal applied 2 g-Panthenol Tbl. was executed. […] After its decay and continuation of the breakfast with bread the same reactions in bladder, womb and bowel 10 minutes later repeated with time shortened duration.
Acetylcholine, the natural excitation transmitter from the nerve to the muscle effects striped muscles in concentrations of 10^−6 g/l, smooth muscles already in concentrations of 10^−16 g/l. (4) These “adverse” reactions are contractions of smooth muscles of lachrymal gland, bladder, stomach, intestine, caused by there suddenly synthesized acetylcholine, which exceeds the Response threshold that is 10^−16 grams per liter of acetylcholine in smooth muscles: • a) within 10 minutes of ingestion into the stomach and after the end of reaction; • b) within 10 minutes of sublingual/buccal absorption of 2000 mg Tbl Panthenol, while Acetylcholinersterase-inhibition amongst 140 mg Neostgminbromid is existing. […] (13)

ACH Esterase = molecular target: T1, ACH Esterase (Homo sapiens, UniProt P22303); conditions: 30 mg PB, soldiers, cited from earlier work
T1 construct: endogenous in cells

[2] = cited from earlier work; for side effects: Alzheimer's disease patients; for condition of Alzheimer's disease patients: after administration
[3] = treatment of weakness in metabolic activity with pantothenic acid-CoA; format: in vivo, human; conditions: intake in a large amount
From the text: The invention is based of the surprising finding of Mr.
Muscle weakness and pain, weakness, respiratory weakness, mental exhaustion, and gastric problems have mainly been treated with pantothenic acid-CoA,-buk, vitamins and amino acids.
After improvement and discontinuation of the treatment the symptoms returned after a short interval. Ultimately, the problems could be reduced and neutralised through re-treatment. Only with the normalization of the function of the digestive tract, the absorption of pantothenic acid-CoA from food in the stomach could be reproduced, and the treatment was dispensable.
Disturbed gastric functions and/or depletion of mitochondrial reserves in Myasthenia, autism, chronic fatigue syndrome appears in the fading of the yellowing of the urine. […] The current optimum, the proof of the success of the pantothenic acid-CoA treatment is reached when harmless acetylcholine surplus reactions responses in the bladder, stomach or intestines occur.

T1 sequence (P22303 32-614): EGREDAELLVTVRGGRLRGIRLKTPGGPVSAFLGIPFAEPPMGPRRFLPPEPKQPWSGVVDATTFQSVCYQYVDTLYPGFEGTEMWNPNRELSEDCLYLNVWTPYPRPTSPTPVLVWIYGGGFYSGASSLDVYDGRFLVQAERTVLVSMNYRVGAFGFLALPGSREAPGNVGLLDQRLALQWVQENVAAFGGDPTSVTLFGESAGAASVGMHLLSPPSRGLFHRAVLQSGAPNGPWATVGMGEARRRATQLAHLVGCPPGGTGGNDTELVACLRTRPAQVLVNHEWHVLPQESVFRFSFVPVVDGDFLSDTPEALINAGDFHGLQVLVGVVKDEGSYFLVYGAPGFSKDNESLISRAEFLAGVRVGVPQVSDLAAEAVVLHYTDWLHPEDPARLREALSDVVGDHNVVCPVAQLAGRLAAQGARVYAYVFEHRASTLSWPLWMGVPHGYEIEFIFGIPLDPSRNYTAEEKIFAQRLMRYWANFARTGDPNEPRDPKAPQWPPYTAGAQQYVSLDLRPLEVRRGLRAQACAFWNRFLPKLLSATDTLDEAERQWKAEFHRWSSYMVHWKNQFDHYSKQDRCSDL

CC(C)(CO)[C@@H](O)C(=O)NCCCO [Panthenol]
reaction to first application of Panthenol ([1]; first application, under 140 mg Neostigminbromid): the same adverse reaction started with a similar duration | reaction to anew application of Panthenol ([1]; second application after continued breakfast): the same adverse reaction started, but delayed and lasted for less

CN(C)C(=O)Oc1ccc[n+](C)c1 [Pyridostigminbromid]
adverse cholinergic reactions (ACH Esterase): nausea, vomiting, stomach cramps, diarrhea, urination, increased salivation, sweating and muscle spasm | adverse cholinergic reactions (ACH Esterase; listed as pyridostigmine bromide): nausea, vomiting, abdominal Cramps, diarrhea, increased salivation, sweating, muscle Cramps

CCN(C)C(=O)Oc1cccc([C@H](C)N(C)C)c1 [Rivastigmin]
side effects [2]: nausea, vomiting, diarrhea and cramps | condition of Alzheimer's disease patients [2]: improvement of their condition

Nc1c2c(nc3ccccc13)CCCC2 [Tacrine]
side effects [2]: nausea, vomiting, diarrhea and cramps | condition of Alzheimer's disease patients [2]: improvement of their condition

CC(C)(CO)[C@@H](O)C(=O)NCCC(=O)O [pantothenic acid, Pantothenic acid]
effect on symptoms caused by weakness in metabolic activity [3]: beneficial effect

pantothenic acid-CoA
effect on symptoms caused by weakness in metabolic activity [3]: beneficial effect
